# pEC50: −log10 of the molar value.
# Target: Anti-alpha galactosyl IgG antibody
# Test: ELISA assay: streptavidin-captured biotin compound, binding of anti-alpha galactosyl IgG antibody
# Set-up: species or system human
# Conditions: geometric mean with standard error in brackets; streptavidin plate, anti-alpha galactosyl IgG 0.5 μg/mL; read-out: Concentration at half maximal binding
row,pEC50,Structure (SMILES)
1,7.54,"CC(=O)N[C@H]1[C@H](OCCCNC(=O)COc2ccc(C(=O)NCCNC(=O)CCCC[C@@H]3SC[C@@H]4NC(=O)N[C@@H]43)cc2)O[C@H](CO)[C@@H](O[C@@H]2O[C@H](CO)[C@H](O)[C@H](O[C@H]3O[C@H](CO)[C@H](O)[C@H](O)[C@H]3O)[C@H]2O)[C@@H]1O [Example 8, 4-(2-((3-(((2R,3R,4R,5S,6R)-3-Acetamido-5-(((2S,3R,4S,5S,6R)-3,5-dihydroxy-6-(hydroxymethyl)-4-(((2R,3R,4S,5R,6R)-3,4,5-trihydroxy-6-(hydroxymethyl)tetrahydro-2H-pyran-2-yl)oxy)tetrahydro-2H-pyran-2-yl)oxy)-4-hydroxy-6-(hydroxymethyl)tetrahydro-2H-pyran-2-yl)oxy)propyl)amino)-2-oxoethoxy)-N-(2-(5-((3aS,4S,6aR)-2-oxohexahydro-1H-thieno[3,4-d]imidazol-4-yl)pentanamido)ethyl)benzamide]"
2,7.60,CC(=O)NC1C(OCCCNC(=O)CCOCCOCCOCCOCCOCCOCCOCCOCCOCCOCCOCCOCCNC(=O)COc2ccc(-c3cc(OCC(=O)NCCOCCOCCOCCOCCOCCOCCOCCOCCOCCOCCOCCOCCC(=O)NCCCOC4OC(CO)C(OC5OC(CO)C(O)C(OC6OC(CO)C(O)C(O)C6O)C5O)C(O)C4NC(C)=O)cc(C(=O)NCCNC(=O)CCOCCOCCOCCOCCOCCOCCOCCOCCOCCOCCOCCOCCNC(=O)CCCCC4SCC5NC(=O)NC54)c3)cc2)OC(CO)C(OC2OC(CO)C(O)C(OC3OC(CO)C(O)C(O)C3O)C2O)C1O (centres unmarked) [Example 48]
3,8.08,CC(=O)NC1C(OCCCNC(=O)COc2cc(OCC(=O)NCCCOC3OC(CO)C(OC4OC(CO)C(O)C(OC5OC(CO)C(O)C(O)C5O)C4O)C(O)C3NC(C)=O)cc(-c3cc(OCC(=O)NCCCOC4OC(CO)C(OC5OC(CO)C(O)C(OC6OC(CO)C(O)C(O)C6O)C5O)C(O)C4NC(C)=O)cc(C(=O)NCCNC(=O)CCOCCOCCOCCOCCOCCOCCOCCOCCOCCOCCOCCOCCNC(=O)CCCCC4SCC5NC(=O)NC54)c3)c2)OC(CO)C(OC2OC(CO)C(O)C(OC3OC(CO)C(O)C(O)C3O)C2O)C1O (centres unmarked) [Example 16]
4,7.68,CC(=O)N[C@H]1[C@H](OCCCNC(=O)COc2cc(OCC(=O)NCCCO[C@@H]3O[C@H](CO)[C@@H](O[C@@H]4O[C@H](CO)[C@H](O)[C@H](O[C@H]5O[C@H](CO)[C@H](O)[C@H](O)[C@H]5O)[C@H]4O)[C@H](O)[C@H]3NC(C)=O)cc(-c3cc(C(=O)NCCNC(=O)CCCC[C@@H]4SC[C@@H]5NC(=O)N[C@@H]54)cc(-c4cc(OCC(=O)NCCCO[C@@H]5O[C@H](CO)[C@@H](O[C@@H]6O[C@H](CO)[C@H](O)[C@H](O[C@H]7O[C@H](CO)[C@H](O)[C@H](O)[C@H]7O)[C@H]6O)[C@H](O)[C@H]5NC(C)=O)cc(OCC(=O)NCCCO[C@@H]5O[C@H](CO)[C@@H](O[C@@H]6O[C@H](CO)[C@H](O)[C@H](O[C@H]7O[C@H](CO)[C@H](O)[C@H](O)[C@H]7O)[C@H]6O)[C@H](O)[C@H]5NC(C)=O)c4)c3)c2)O[C@H](CO)[C@@H](O[C@@H]2O[C@H](CO)[C@H](O)[C@H](O[C@H]3O[C@H](CO)[C@H](O)[C@H](O)[C@H]3O)[C@H]2O)[C@@H]1O [Example 62]
5,7.58,CC(=O)NC1C(OCCCNC(=O)CCOCCOCCOCCOCCOCCOCCOCCOCCOCCOCCOCCOCCNC(=O)COc2ccc(-c3cc(OCC(=O)NCCOCCOCCOCCOCCOCCOCCOCCOCCOCCOCCOCCOCCC(=O)NCCCOC4OC(CO)C(OC5OC(CO)C(O)C(OC6OC(CO)C(O)C(O)C6O)C5O)C(O)C4NC(C)=O)cc(C(=O)NCCNC(=O)CCCCC4SCC5NC(=O)NC54)c3)cc2)OC(CO)C(OC2OC(CO)C(O)C(OC3OC(CO)C(O)C(O)C3O)C2O)C1O (centres unmarked) [Example 49]
